Data: patent publication US8450266B2 (Ipsen Pharma S.A.S., priority 2008, dated 2013)
Where a SMILES comes first, the peptide text is derived from it. [ ]: non-standard residue; d: D form. The star is where a group is joined. X2 = CCCCCCN1C(=O)CC(*)C1=O; Ac6c = NC1(C(=O)O)CCCCC1; X1 = CCCN1C(=O)CC(*)C1=O

Tests used:
[1] = Rat plasma half-life assay (LC-MS); type: in vitro ADME; details: incubated at 37° C., read-out: Rat Plasma T½ (converted)
Summary of the method: (§1)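 Aliquots taken from human or rat plasma at time points up to 72 h, quenched with formic acid and acetonitrile, centrifuged. Supernatant analyzed by LC-MS (ESI, positive ion, full scan) on a C8 column with a water/acetonitrile 1% formic acid gradient.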

[2] = Human plasma half-life assay (LC-MS); type: in vitro ADME; details: incubated at 37° C., read-out: Human Plasma T½ (converted)
Summary of the method: as §1

## CCCCCCN1C(=O)CC(SC[C@H](NC(=O)[C@H](CCCCN)NC(=O)[C@H](CCC(N)=O)NC(=O)[C@H](C)NC(=O)[C@H](CC(C)C)NC(=O)[C@H](CC(C)C)NC(=O)[C@H](Cc2c[nH]c3ccccc23)NC(=O)[C@H](CC(N)=O)NC(=O)[C@@H](NC(=O)[C@H](Cc2ccccc2)NC(=O)[C@H](CC(=O)O)NC(=O)[C@H](CCC(N)=O)NC(=O)[C@H](CCC(N)=O)NC(=O)[C@H](Cc2c[nH]cn2)NC(=O)[C@@H](NC(=O)[C@H](CCCCN)NC(=O)[C@H](CC(=O)O)NC(=O)[C@H](CCSC)NC(=O)[C@H](C)NC(=O)[C@@H](NC(=O)[C@H](CO)NC(=O)[C@H](Cc2ccc(O)cc2)NC(=O)[C@H](CC(=O)O)NC(=O)[C@H](CO)NC(=O)C2(N)CCCCC2)[C@@H](C)CC)[C@@H](C)CC)C(C)C)C(=O)N[C@@H](CCCCN)C(=O)N[C@@H](CCCCN)C(=O)N[C@@H](CC(N)=O)C(=O)N[C@@H](CC(=O)O)C(=O)N[C@@H](Cc2c[nH]c3ccccc23)C(=O)N[C@@H](CCCCN)C(=O)N[C@@H](Cc2c[nH]cn2)C(=O)N[C@@H](CC(N)=O)C(=O)N[C@H](C(=O)N[C@H](C(=O)N[C@@H](CCC(N)=O)C(=O)O)[C@@H](C)O)[C@@H](C)CC)C1=O (some centres unmarked) [Example 23, [A6c^7, Cys(Hsu)^31]hGIP(7-42)-OH] (H-[Ac6c]SDYSIAMDKIHQQDFVNWLLAQKC(X2)KKNDWKHNITQ-OH)
[1]
  half-life at 0.1 mg/mL: 5.3 h
[2]
  half-life at 0.1 mg/mL: 11.7 h

## CC[C@H](C)[C@H](NC(=O)[C@H](CO)NC(=O)[C@H](Cc1ccc(O)cc1)NC(=O)[C@H](CC(=O)O)NC(=O)[C@H](CO)NC(=O)C1(NC(C)=O)CCCCC1)C(=O)N[C@@H](C)C(=O)N[C@@H](CCSC)C(=O)N[C@@H](CC(=O)O)C(=O)N[C@@H](CCCCN)C(=O)N[C@H](C(=O)N[C@@H](Cc1c[nH]cn1)C(=O)N[C@@H](CCC(N)=O)C(=O)N[C@@H](CCC(N)=O)C(=O)N[C@@H](CC(=O)O)C(=O)N[C@@H](Cc1ccccc1)C(=O)N[C@H](C(=O)N[C@@H](CC(N)=O)C(=O)N[C@@H](Cc1c[nH]c2ccccc12)C(=O)N[C@@H](CC(C)C)C(=O)N[C@@H](CC(C)C)C(=O)N[C@@H](C)C(=O)N[C@@H](CCC(N)=O)C(=O)N[C@@H](CCCCN)C(=O)N[C@@H](Cc1ccc2ccccc2c1)C(=O)N[C@@H](CCCCN)C(=O)N[C@@H](CCCCN)C(=O)N[C@@H](CC(N)=O)C(=O)N[C@@H](CC(=O)O)C(=O)N[C@@H](Cc1c[nH]c2ccccc12)C(=O)N[C@@H](CCCCN)C(=O)N[C@@H](Cc1c[nH]cn1)C(=O)N[C@@H](CC(N)=O)C(=O)N[C@H](C(=O)N[C@H](C(=O)N[C@@H](CCC(N)=O)C(=O)O)[C@@H](C)O)[C@@H](C)CC)C(C)C)[C@@H](C)CC [Example 24, (Ac-A6c^7, 2Nal^31)hGIP(7-42)-OH] (HELM PEPTIDE1{[ac].[O=C(C1(N[*:1])CCCCC1)[*:2]].S.D.Y.S.I.A.M.D.K.I.H.Q.Q.D.F.V.N.W.L.L.A.Q.K.[O=C([C@H](Cc1ccc2ccccc2c1)N[*:1])[*:2]].K.K.N.D.W.K.H.N.I.T.Q}$$$$V2.0)
[1]
  half-life at 0.1 mg/mL: 12.2 h
[2]
  half-life at 0.1 mg/mL: 26.3 h

## CC[C@H](C)[C@H](NC(=O)[C@H](CO)NC(=O)[C@H](Cc1ccc(O)cc1)NC(=O)[C@H](CC(=O)O)NC(=O)[C@H](CO)NC(=O)C1(NC(C)=O)CCCCC1)C(=O)N[C@@H](C)C(=O)N[C@@H](CCSC)C(=O)N[C@@H](CC(=O)O)C(=O)N[C@@H](CCCCN)C(=O)N[C@H](C(=O)N[C@@H](Cc1c[nH]cn1)C(=O)N[C@@H](CCC(N)=O)C(=O)N[C@@H](CCC(N)=O)C(=O)N[C@@H](CC(=O)O)C(=O)N[C@@H](Cc1ccccc1)C(=O)N[C@H](C(=O)N[C@@H](CC(N)=O)C(=O)N[C@@H](Cc1c[nH]c2ccccc12)C(=O)N[C@@H](CC(C)C)C(=O)N[C@@H](CC(C)C)C(=O)N[C@@H](C)C(=O)N[C@@H](CCC(N)=O)C(=O)N[C@@H](CCCCN)C(=O)N[C@H](Cc1ccc2ccccc2c1)C(=O)N[C@@H](CCCCN)C(=O)N[C@@H](CCCCN)C(=O)N[C@@H](CC(N)=O)C(=O)N[C@@H](CC(=O)O)C(=O)N[C@@H](Cc1c[nH]c2ccccc12)C(=O)N[C@@H](CCCCN)C(=O)N[C@@H](Cc1c[nH]cn1)C(=O)N[C@@H](CC(N)=O)C(=O)N[C@H](C(=O)N[C@H](C(=O)N[C@@H](CCC(N)=O)C(=O)O)[C@@H](C)O)[C@@H](C)CC)C(C)C)[C@@H](C)CC [Example 25, (Ac-A6c^7, D-2Nal^31)hGIP(7-42)-OH] (HELM PEPTIDE1{[ac].[O=C(C1(N[*:1])CCCCC1)[*:2]].S.D.Y.S.I.A.M.D.K.I.H.Q.Q.D.F.V.N.W.L.L.A.Q.K.[O=C([C@@H](Cc1ccc2ccccc2c1)N[*:1])[*:2]].K.K.N.D.W.K.H.N.I.T.Q}$$$$V2.0)
[1]
  half-life at 0.1 mg/mL: 13.7 h
[2]
  half-life at 0.1 mg/mL: > 50 h

## CCCN1C(=O)CC(SC[C@H](NC(=O)[C@H](CCCCN)NC(=O)[C@H](CCC(N)=O)NC(=O)[C@H](C)NC(=O)[C@H](CC(C)C)NC(=O)[C@H](CC(C)C)NC(=O)[C@H](Cc2c[nH]c3ccccc23)NC(=O)[C@H](CC(N)=O)NC(=O)[C@@H](NC(=O)[C@H](Cc2ccccc2)NC(=O)[C@H](CC(=O)O)NC(=O)[C@H](CCC(N)=O)NC(=O)[C@H](CCC(N)=O)NC(=O)[C@H](Cc2c[nH]cn2)NC(=O)[C@@H](NC(=O)[C@H](CCCCN)NC(=O)[C@H](CC(=O)O)NC(=O)[C@H](CCSC)NC(=O)[C@H](C)NC(=O)[C@@H](NC(=O)[C@H](CO)NC(=O)[C@H](Cc2ccc(O)cc2)NC(=O)[C@H](CC(=O)O)NC(=O)[C@H](CO)NC(=O)C2(NC(C)=O)CCCCC2)[C@@H](C)CC)[C@@H](C)CC)C(C)C)C(=O)N[C@@H](CCCCN)C(=O)N[C@@H](CCCCN)C(=O)N[C@@H](CC(N)=O)C(N)=O)C1=O (some centres unmarked) [Example 28, (Ac-A6c^7, Cys(Psu)^31]hGIP(7-34)-NH2]
[1]
  half-life at 0.1 mg/mL: 4.1 h
[2]
  half-life at 0.1 mg/mL: 8.8 h

## CCCN1C(=O)CC(SC[C@H](NC(=O)[C@H](CCCCN)NC(=O)[C@H](CCC(N)=O)NC(=O)[C@H](C)NC(=O)[C@H](CC(C)C)NC(=O)[C@H](CC(C)C)NC(=O)[C@H](Cc2c[nH]c3ccccc23)NC(=O)[C@H](CC(N)=O)NC(=O)[C@@H](NC(=O)[C@H](Cc2ccccc2)NC(=O)[C@H](CC(=O)O)NC(=O)[C@H](CCC(N)=O)NC(=O)[C@H](CCC(N)=O)NC(=O)[C@H](Cc2c[nH]cn2)NC(=O)[C@@H](NC(=O)[C@H](CCCCN)NC(=O)[C@H](CC(=O)O)NC(=O)[C@H](CCSC)NC(=O)[C@H](C)NC(=O)[C@@H](NC(=O)[C@H](CO)NC(=O)[C@H](Cc2ccc(O)cc2)NC(=O)[C@H](CC(=O)O)NC(=O)[C@H](CO)NC(=O)C2(NC(C)=O)CCCCC2)[C@@H](C)CC)[C@@H](C)CC)C(C)C)C(N)=O)C1=O (some centres unmarked) [Example 29, [Ac-A6c^7, Cys(Psu)^31]hGIP(7-31)-NH2]
[1]
  half-life at 0.1 mg/mL: 7 h
[2]
  half-life at 0.1 mg/mL: 12.2 h

## CCCN1C(=O)CC(SC[C@H](NC(=O)[C@H](CCCCN)NC(=O)[C@H](CCC(N)=O)NC(=O)[C@H](C)NC(=O)[C@H](CC(C)C)NC(=O)[C@H](CC(C)C)NC(=O)[C@H](Cc2c[nH]c3ccccc23)NC(=O)[C@H](CC(N)=O)NC(=O)[C@@H](NC(=O)[C@H](Cc2ccccc2)NC(=O)[C@H](CC(=O)O)NC(=O)[C@H](CCC(N)=O)NC(=O)[C@H](CCC(N)=O)NC(=O)[C@H](Cc2c[nH]cn2)NC(=O)[C@@H](NC(=O)[C@H](CCCCN)NC(=O)[C@H](CC(=O)O)NC(=O)[C@H](CCSC)NC(=O)[C@H](C)NC(=O)[C@@H](NC(=O)[C@H](CO)NC(=O)[C@H](Cc2ccc(O)cc2)NC(=O)[C@H](CC(=O)O)NC(=O)[C@H](CO)NC(=O)C2(NC(=O)[C@H](Cc3ccccc3)NC(C)=O)CCCCC2)[C@@H](C)CC)[C@@H](C)CC)C(C)C)C(=O)N[C@@H](CCCCN)C(=O)N[C@@H](CCCCN)C(=O)N[C@@H](CC(N)=O)C(=O)N[C@@H](CC(=O)O)C(=O)N[C@@H](Cc2c[nH]c3ccccc23)C(=O)N[C@@H](CCCCN)C(=O)N[C@@H](Cc2c[nH]cn2)C(=O)N[C@@H](CC(N)=O)C(=O)N[C@H](C(=O)N[C@H](C(=O)N[C@@H](CCC(N)=O)C(=O)O)[C@@H](C)O)[C@@H](C)CC)C1=O (some centres unmarked) [Example 30, [Ac-Phe^6, A6c^7, Cys(Psu)^31]hGIP(6-42)-OH] (Ac-F[Ac6c]SDYSIAMDKIHQQDFVNWLLAQKC(X1)KKNDWKHNITQ-OH)
[1]
  half-life at 0.1 mg/mL: 7.6 h
[2]
  half-life at 0.1 mg/mL: 7.2 h

## CCCN1C(=O)CC(SC[C@H](NC(=O)[C@H](CCCCN)NC(=O)[C@H](CCC(N)=O)NC(=O)[C@H](C)NC(=O)[C@H](CC(C)C)NC(=O)[C@H](CC(C)C)NC(=O)[C@H](Cc2c[nH]c3ccccc23)NC(=O)[C@H](CC(N)=O)NC(=O)[C@@H](NC(=O)[C@H](Cc2ccccc2)NC(=O)[C@H](CC(=O)O)NC(=O)[C@H](CCC(N)=O)NC(=O)[C@H](CCC(N)=O)NC(=O)[C@H](Cc2c[nH]cn2)NC(=O)[C@@H](NC(=O)[C@H](CCCCN)NC(=O)[C@H](CC(=O)O)NC(=O)[C@H](CCSC)NC(=O)[C@H](C)NC(=O)[C@@H](NC(=O)[C@H](CO)NC(=O)[C@H](Cc2ccc(O)cc2)NC(=O)[C@H](CC(=O)O)NC(=O)[C@H](CO)NC(=O)C2(NC(=O)[C@@H](N)Cc3ccccc3)CCCCC2)[C@@H](C)CC)[C@@H](C)CC)C(C)C)C(=O)N[C@@H](CCCCN)C(=O)N[C@@H](CCCCN)C(=O)N[C@@H](CC(N)=O)C(=O)N[C@@H](CC(=O)O)C(=O)N[C@@H](Cc2c[nH]c3ccccc23)C(=O)N[C@@H](CCCCN)C(=O)N[C@@H](Cc2c[nH]cn2)C(=O)N[C@@H](CC(N)=O)C(=O)N[C@H](C(=O)N[C@H](C(=O)N[C@@H](CCC(N)=O)C(=O)O)[C@@H](C)O)[C@@H](C)CC)C1=O (some centres unmarked) [Example 31, [A6c^7, Cys(Psu)^31]hGIP(6-42)-OH] (H-F[Ac6c]SDYSIAMDKIHQQDFVNWLLAQKC(X1)KKNDWKHNITQ-OH)
[1]
  half-life at 0.1 mg/mL: 5.1 h
[2]
  half-life at 0.1 mg/mL: 4.4 h
